Data taken from publication PMC11062922 (Nature Chemical Biology, 2023).

How the values were obtained:
SYK = target: T1, SYK (Homo sapiens, UniProt P43405); assay: Kinobeads two-dose competition binding: SYK
T1 construct: endogenous in cells

[1] = target: T2, endogenous kinases and other proteins enriched by Kinobeads from mixed lysates of K-562, COLO-205, MV-4-11, SK-N-BE(2) and OVCAR-8 (Homo sapiens, UniProt P12931); assay: Kinobeads competition binding profiling, two doses (100 nM and 1 µM);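 further: inhibitor preincubated 45 min at 4 °C in cell lysate, then bead pulldown. Bound protein quantified by label-free mass spectrometry relative to DMSO vehicle control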
T2 construct: to maximize the representation of endogenous proteins; endogenous in cells

[2] = target: T3, endogenous kinases and other proteins enriched by Kinobeads from mixed lysates of K-562, COLO-205, MV-4-11, SK-N-BE(2) and OVCAR-8 (Homo sapiens, UniProt P06239); assay: as above
T3 construct: endogenous in cells

[3] = target: T4, endogenous kinases and other proteins enriched by Kinobeads from mixed lysates of K-562, COLO-205, MV-4-11, SK-N-BE(2) and OVCAR-8 (Homo sapiens, UniProt P23458); assay: as above
T4 construct: to maximize the representation of endogenous proteins; endogenous in cells
T4 sequence (P23458 whole entry): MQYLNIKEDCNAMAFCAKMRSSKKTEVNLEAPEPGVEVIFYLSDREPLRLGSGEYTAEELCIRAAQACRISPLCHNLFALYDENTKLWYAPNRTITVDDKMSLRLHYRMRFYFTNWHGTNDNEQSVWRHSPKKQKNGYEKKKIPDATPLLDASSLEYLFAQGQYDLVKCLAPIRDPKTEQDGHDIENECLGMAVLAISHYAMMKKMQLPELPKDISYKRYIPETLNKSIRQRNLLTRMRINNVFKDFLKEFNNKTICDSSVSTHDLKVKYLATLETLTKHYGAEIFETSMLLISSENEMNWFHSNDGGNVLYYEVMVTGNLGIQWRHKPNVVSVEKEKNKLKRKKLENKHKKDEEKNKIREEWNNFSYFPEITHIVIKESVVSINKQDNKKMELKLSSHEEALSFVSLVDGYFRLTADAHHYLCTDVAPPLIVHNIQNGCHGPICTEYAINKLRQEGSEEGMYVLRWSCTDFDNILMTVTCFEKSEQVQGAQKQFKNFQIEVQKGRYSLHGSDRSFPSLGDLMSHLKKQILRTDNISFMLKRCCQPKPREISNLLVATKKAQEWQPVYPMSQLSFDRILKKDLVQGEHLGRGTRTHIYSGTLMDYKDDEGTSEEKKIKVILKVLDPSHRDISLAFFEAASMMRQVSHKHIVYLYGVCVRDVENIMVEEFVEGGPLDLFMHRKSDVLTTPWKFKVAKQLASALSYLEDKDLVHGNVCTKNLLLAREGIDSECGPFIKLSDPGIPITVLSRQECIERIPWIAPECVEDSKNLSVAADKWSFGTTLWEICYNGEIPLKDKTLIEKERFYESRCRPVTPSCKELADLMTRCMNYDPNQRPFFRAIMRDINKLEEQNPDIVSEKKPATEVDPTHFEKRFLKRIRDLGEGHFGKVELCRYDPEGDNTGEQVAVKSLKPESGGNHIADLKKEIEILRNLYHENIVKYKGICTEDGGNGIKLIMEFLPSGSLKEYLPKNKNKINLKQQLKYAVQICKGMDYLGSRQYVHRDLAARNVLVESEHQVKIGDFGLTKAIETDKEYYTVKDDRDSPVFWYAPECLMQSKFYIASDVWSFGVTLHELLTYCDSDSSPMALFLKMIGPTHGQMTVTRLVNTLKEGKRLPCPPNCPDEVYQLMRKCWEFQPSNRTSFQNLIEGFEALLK

T2 sequence (P12931 whole entry): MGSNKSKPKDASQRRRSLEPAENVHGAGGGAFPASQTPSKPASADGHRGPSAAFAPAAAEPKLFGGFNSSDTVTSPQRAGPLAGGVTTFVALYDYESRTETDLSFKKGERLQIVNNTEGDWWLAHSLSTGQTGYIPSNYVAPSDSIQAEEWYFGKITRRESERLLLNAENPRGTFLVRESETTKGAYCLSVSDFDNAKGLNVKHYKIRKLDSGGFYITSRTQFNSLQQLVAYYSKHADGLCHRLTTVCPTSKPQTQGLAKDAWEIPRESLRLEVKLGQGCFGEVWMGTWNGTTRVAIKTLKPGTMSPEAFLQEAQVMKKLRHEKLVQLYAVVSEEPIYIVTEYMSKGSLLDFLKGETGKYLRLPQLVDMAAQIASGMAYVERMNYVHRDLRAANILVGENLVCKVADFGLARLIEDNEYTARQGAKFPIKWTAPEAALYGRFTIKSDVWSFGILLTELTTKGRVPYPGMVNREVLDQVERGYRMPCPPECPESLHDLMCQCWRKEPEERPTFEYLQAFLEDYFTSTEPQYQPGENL
T3 sequence (P06239 whole entry): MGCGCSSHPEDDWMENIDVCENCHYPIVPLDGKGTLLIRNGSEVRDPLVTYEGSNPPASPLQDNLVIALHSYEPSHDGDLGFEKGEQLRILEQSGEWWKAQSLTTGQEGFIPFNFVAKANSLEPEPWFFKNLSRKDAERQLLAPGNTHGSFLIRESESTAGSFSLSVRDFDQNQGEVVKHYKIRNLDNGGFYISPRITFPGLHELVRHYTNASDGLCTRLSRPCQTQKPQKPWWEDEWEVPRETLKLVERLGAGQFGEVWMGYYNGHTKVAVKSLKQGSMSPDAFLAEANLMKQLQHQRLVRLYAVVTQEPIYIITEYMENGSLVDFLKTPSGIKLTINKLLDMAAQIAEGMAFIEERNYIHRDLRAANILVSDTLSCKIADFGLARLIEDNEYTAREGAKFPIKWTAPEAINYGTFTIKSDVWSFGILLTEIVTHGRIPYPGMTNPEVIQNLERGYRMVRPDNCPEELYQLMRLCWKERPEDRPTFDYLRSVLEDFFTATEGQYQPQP

For `COc1cc(Nc2ncc3c(C)nc(-c4cc5ccccc5[nH]4)n3n2)cc(OC)c1OC` [GW869516X], the “Kinobeads Data” value (SYK; SYK) was “no target”, the “Kinobeads Data” value ([1]; SRC) was “no target” and the “Kinobeads Data” value ([2]; LCK) was “no target”. For the same compound, the “Kinobeads Data” value ([3]; JAK1(JH2domain-pseudokinase)) was “no target”.
Compound `C[C@]12O[C@H](C[C@]1(O)CO)n1c3ccccc3c3c4c(c5c6ccccc6n2c5c31)CNC4=O` [Lestaurtinib] has a potency estimated from few doses (SYK; read-out: Lestaurtinib Drugmatrix value, Gene Name SYK) of 157 nM, a potency estimated from few doses ([1]; read-out: Lestaurtinib Drugmatrix value, Gene Name SRC) of 618 nM and a potency estimated from few doses ([2]; read-out: Lestaurtinib Drugmatrix value (apparent Kd), Gene Name LCK, target LCK, each column = one Lestaurtinib control run_replicate) of 550 nM. It also gave a potency estimated from few doses ([3]; read-out: Lestaurtinib Drugmatrix value (apparent Kd), Gene Name JAK1, target JAK1, each column = one Lestaurtinib control run_replicate) of 881 nM.
